# Data reported in patent US12359182B2, “Polypeptide variants” (Novozymes A/S, priority 2020, dated 2025).
# Tests used:
# [1] = molecular target: Bifidobacterium bifidum lactase, parent, SEQ ID NO: 1 (Bifidobacterium bifidum, UniProt A4K5H9); experiment: galactose inhibition assay (GI-IF), ONPG hydrolysis with and without D-(+)-Galactose (80 mM), Abs405; format: biochemical; conditions: ONPG 10.66 mM, MES 100 mM, pH 6.0, 30 min at 23° C., normalized reference
# Protocol: (§1) Stop solution is added (Na2CO3, 10% w/v in H2O), and the absorbance at 405 nm is recorded. “Abs405 Galactose sample” is the absorbance for the lactase grown in assay solution, “Abs405 Galactose Blank” is the absorbance for non-inoculated assay solution, “Abs405 Reference sample” is the absorbance for the lactase grown in reference solution, and “Abs405 Reference Blank” is the absorbance for non-inoculated reference solution.
# [2] = molecular target: Bifidobacterium bifidum lactase (SEQ ID NO: 1) variant E2G (Bifidobacterium bifidum, UniProt A4K5H9, E34G); format: biochemical; conditions: D-(+)-Galactose 80 mM, ONPG 10.66 mM, pH 6.0, 30 min at 23° C., ratio of activity with/without galactose relative to wild type SEQ ID NO: 1 (IF=1.0), above 1 = decreased galactose inhibition
# Protocol: as §1
# [3] = molecular target: Bifidobacterium bifidum lactase (SEQ ID NO: 1) variant V1D (Bifidobacterium bifidum, UniProt A4K5H9, V33D); format: biochemical; conditions: D-(+)-Galactose 80 mM, ONPG 10.66 mM, pH 6.0, 30 min at 23° C., ratio of activity with/without galactose relative to wild type SEQ ID NO: 1 (IF=1.0), above 1 = decreased galactose inhibition
# Protocol: as §1
# [4] = molecular target: Bifidobacterium bifidum lactase (SEQ ID NO: 1) variant V1F (Bifidobacterium bifidum, UniProt A4K5H9, V33F); format: biochemical; conditions: D-(+)-Galactose 80 mM, ONPG 10.66 mM, pH 6.0, 30 min at 23° C., ratio of activity with/without galactose relative to wild type SEQ ID NO: 1 (IF=1.0), above 1 = decreased galactose inhibition
# Protocol: as §1
# [5] = molecular target: Bifidobacterium bifidum lactase (SEQ ID NO: 1) variant V1K (Bifidobacterium bifidum, UniProt A4K5H9, V33K); format: biochemical; conditions: D-(+)-Galactose 80 mM, ONPG 10.66 mM, pH 6.0, 30 min at 23° C., ratio of activity with/without galactose relative to wild type SEQ ID NO: 1 (IF=1.0), above 1 = decreased galactose inhibition
# Protocol: as §1
# [6] = molecular target: Bifidobacterium bifidum lactase (SEQ ID NO: 1) variant V1R (Bifidobacterium bifidum, UniProt A4K5H9, V33R); format: biochemical; conditions: D-(+)-Galactose 80 mM, ONPG 10.66 mM, pH 6.0, 30 min at 23° C., ratio of activity with/without galactose relative to wild type SEQ ID NO: 1 (IF=1.0), above 1 = decreased galactose inhibition
# Protocol: as §1
# [7] = molecular target: T1, Bifidobacterium bifidum lactase of SEQ ID NO: 1, variant G856E (Bifidobacterium bifidum, UniProt A4K5H9, G888E); experiment: biochemical
# T1 construct: purified sample
# T1 sequence (A4K5H9 33-1336 G888E): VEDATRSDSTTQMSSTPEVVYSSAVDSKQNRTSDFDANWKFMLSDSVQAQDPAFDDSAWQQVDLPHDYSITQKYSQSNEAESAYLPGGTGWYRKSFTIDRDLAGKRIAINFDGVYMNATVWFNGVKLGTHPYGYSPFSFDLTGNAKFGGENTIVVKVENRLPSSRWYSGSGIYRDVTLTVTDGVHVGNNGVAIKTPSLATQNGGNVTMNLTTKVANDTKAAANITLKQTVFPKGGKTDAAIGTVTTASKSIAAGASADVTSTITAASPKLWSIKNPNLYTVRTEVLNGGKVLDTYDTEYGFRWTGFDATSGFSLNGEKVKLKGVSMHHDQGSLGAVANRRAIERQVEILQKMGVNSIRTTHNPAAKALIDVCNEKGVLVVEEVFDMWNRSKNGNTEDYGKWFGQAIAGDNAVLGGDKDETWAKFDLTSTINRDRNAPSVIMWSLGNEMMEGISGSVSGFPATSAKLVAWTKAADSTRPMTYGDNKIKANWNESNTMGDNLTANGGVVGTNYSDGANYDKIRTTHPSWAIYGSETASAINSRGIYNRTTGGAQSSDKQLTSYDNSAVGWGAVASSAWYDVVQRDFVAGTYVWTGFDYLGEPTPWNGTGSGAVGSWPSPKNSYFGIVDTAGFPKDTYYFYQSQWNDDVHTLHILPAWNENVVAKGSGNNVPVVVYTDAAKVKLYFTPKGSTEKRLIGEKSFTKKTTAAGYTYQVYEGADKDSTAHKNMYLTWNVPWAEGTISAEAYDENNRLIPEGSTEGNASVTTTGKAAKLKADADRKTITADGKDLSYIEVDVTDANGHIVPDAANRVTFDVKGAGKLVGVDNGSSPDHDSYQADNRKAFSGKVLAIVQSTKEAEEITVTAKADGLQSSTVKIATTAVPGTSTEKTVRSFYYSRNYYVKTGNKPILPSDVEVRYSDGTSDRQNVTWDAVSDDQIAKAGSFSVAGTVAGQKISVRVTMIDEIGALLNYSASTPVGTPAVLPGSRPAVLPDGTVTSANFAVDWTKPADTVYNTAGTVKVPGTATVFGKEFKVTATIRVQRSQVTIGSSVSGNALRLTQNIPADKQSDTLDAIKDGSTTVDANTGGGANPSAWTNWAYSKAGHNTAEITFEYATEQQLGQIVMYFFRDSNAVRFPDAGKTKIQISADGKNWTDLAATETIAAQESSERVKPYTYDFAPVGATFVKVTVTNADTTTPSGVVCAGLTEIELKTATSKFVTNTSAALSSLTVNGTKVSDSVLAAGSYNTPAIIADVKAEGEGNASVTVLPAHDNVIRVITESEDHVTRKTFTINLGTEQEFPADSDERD
# Excerpt: (§2) *Note regarding backbone: Some clones of our template backbone for the site saturation library (SEQ ID NO: 1) contain a G856E mutation, so all substitution variants we describe are in the backbone context of SEQ ID NO: 1 with either Gly or Glu at position 856.
# [8] = system: Bifidobacterium bifidum lactase of SEQ ID NO: 1, variant G856E; experiment: biochemical; conditions: pH 6.5; E856 relative to G856
# Excerpt: as §2
# [9] = molecular target: T2, Bifidobacterium bifidum lactase, SEQ ID NO: 1 (G856 backbone) (Bifidobacterium bifidum, UniProt A4K5H9); experiment: biochemical
# T2 construct: purified sample
# Excerpt: as §2
# [10] = system: Bifidobacterium bifidum lactase of SEQ ID NO: 1, variant G856E; experiment: Km at pH 6.5, backbone with Glu at position 856 (purified samples); format: biochemical; conditions: E856 relative to G856
# Excerpt: as §2
# Sequence of Bifidobacterium bifidum lactase (SEQ ID NO: 1) variant E2G (A4K5H9 entry or part of it E34G): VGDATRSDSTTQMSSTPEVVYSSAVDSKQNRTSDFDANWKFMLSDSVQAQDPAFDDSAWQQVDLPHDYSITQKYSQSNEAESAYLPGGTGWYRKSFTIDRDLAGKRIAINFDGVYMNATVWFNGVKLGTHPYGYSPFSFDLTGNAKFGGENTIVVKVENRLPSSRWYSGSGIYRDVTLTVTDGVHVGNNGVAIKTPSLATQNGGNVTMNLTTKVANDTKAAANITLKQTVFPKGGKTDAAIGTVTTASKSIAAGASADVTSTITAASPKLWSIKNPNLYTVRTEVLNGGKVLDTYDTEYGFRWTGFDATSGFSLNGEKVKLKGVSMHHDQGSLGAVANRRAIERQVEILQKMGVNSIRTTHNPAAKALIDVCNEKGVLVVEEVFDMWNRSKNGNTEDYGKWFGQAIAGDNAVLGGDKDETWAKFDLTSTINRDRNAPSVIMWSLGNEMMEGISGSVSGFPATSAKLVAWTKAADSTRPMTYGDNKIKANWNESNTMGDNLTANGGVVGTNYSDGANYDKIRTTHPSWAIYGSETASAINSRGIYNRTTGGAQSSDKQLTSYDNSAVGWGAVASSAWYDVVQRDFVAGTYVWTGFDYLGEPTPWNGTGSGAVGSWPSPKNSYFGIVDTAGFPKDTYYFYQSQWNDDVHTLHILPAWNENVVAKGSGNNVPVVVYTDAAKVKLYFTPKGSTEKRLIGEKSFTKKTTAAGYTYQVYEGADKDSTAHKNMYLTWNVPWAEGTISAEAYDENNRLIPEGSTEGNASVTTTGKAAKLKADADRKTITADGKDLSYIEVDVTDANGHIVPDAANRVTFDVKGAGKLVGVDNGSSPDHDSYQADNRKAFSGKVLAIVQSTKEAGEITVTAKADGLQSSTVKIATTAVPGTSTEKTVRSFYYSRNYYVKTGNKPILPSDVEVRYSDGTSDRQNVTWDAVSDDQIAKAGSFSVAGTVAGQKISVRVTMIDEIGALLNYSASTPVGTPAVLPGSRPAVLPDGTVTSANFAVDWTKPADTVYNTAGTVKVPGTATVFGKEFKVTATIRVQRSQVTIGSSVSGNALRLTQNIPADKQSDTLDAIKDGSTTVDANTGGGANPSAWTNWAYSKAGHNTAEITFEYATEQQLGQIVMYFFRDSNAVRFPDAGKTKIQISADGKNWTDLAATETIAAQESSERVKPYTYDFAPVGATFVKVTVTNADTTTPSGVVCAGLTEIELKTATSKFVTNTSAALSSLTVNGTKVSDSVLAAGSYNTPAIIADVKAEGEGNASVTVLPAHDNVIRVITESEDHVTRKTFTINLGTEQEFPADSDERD
# Sequence of Bifidobacterium bifidum lactase (SEQ ID NO: 1) variant V1D (A4K5H9 entry or part of it V33D): as the sequence (A4K5H9 entry or part of it E34G) above, with V1D, G2E counted along it
# T2 sequence (A4K5H9 entry or part of it): as the sequence (A4K5H9 entry or part of it E34G) above, with G2E counted along it
# Sequence of Bifidobacterium bifidum lactase, parent, SEQ ID NO: 1 (A4K5H9 entry or part of it): as the sequence (A4K5H9 entry or part of it E34G) above, with G2E counted along it
# Sequence of Bifidobacterium bifidum lactase (SEQ ID NO: 1) variant V1F (A4K5H9 entry or part of it V33F): as the sequence (A4K5H9 entry or part of it E34G) above, with V1F, G2E counted along it
# Sequence of Bifidobacterium bifidum lactase (SEQ ID NO: 1) variant V1R (A4K5H9 entry or part of it V33R): as the sequence (A4K5H9 entry or part of it E34G) above, with V1R, G2E counted along it
# Sequence of Bifidobacterium bifidum lactase (SEQ ID NO: 1) variant V1K (A4K5H9 entry or part of it V33K): as the sequence (A4K5H9 entry or part of it E34G) above, with V1K, G2E counted along it
structure (smiles),measurement,setting,value
OC[C@H]1OC(O)[C@H](O)[C@@H](O)[C@H]1O (stereo partly drawn) [D-(+)-Galactose],galactose inhibition improvement factor (GI-IF),[1],1.0
same,GI-IF (galactose inhibition assay improvement factor),[2],1.17
same,GI-IF (galactose inhibition assay improvement factor),[3],1.23
same,GI-IF (galactose inhibition assay improvement factor),[4],1.25
same,GI-IF (galactose inhibition assay improvement factor),[5],1.11
same,GI-IF (galactose inhibition assay improvement factor),[6],1.12
"OC[C@H]1OC(O)[C@H](O)[C@@H](O)[C@H]1O (stereo partly drawn) [galactose, D-(+)-Galactose]",Ki,[7],40.6 mM
same,"IF (Ki galactose inhibition, E856 vs. G856)",[8],0.98
same,Ki,[9],41.5 mM
OC[C@H]1O[C@@H](O[C@H]2[C@H](O)[C@@H](O)C(O)O[C@@H]2CO)[C@H](O)[C@@H](O)[C@H]1O (stereo partly shown) [lactose],"IF (Km, E856 vs. G856)",[10],0.98
